According to patent publication US6737383B1, “Herbicidal oxadiazolidines” (priority 1999, dated 2004):

Legend:
[1] = tested on: cocklebur; assay: Test B pre/postemergence cocklebur; type: in vivo, Xanthium strumarium
Method in brief: (§1)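 Response is a visual 0-to-10 score relative to untreated plants, where 0 means no effect and 10 means complete control, taken twelve to sixteen days after application. Treatments went onto soil at planting and onto foliage of 1- to 4-leaf plants, using a surfactant-containing non-phytotoxic solvent.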

[2] = tested on: corn; assay: Test B pre/postemergence corn; type: in vivo, Zea mays
Method in brief: as §1

[3] = tested on: crabgrass; assay: Test B pre/postemergence crabgrass; type: in vivo, Digitaria sanguinalis
Method in brief: as §1

[4] = tested on: giant foxtail; assay: Test B pre/postemergence giant foxtail; type: in vivo, Setaria faberii
Method in brief: as §1

[5] = tested on: morningglory; assay: Test B pre/postemergence morningglory; type: in vivo, Ipomoea hederacea
Method in brief: as §1

[6] = tested on: pigweed; assay: Test B pre/postemergence pigweed; type: in vivo, Amaranthus retroflexus
Method in brief: as §1

[7] = tested on: rape; assay: Test B pre/postemergence rape; type: in vivo, Brassica napus
Method in brief: as §1

[8] = tested on: soybean; assay: Test B pre/postemergence soybean; type: in vivo, Glycine max
Method in brief: as §1

[9] = tested on: sugar beet; assay: Test B pre/postemergence sugar beet; type: in vivo, Beta vulgaris
Method in brief: as §1

[10] = tested on: velvetleaf; assay: Test B pre/postemergence velvetleaf; type: in vivo, Abutilon theophrasti
Method in brief: as §1

[11] = tested on: wheat; assay: Test B pre/postemergence wheat; type: in vivo, Triticum aestivum
Method in brief: as §1

[12] = tested on: wild oat; assay: Test B pre/postemergence wild oat; type: in vivo, Avena fatua
Method in brief: as §1

[13] = tested on: purple nutsedge; assay: Test B pre/postemergence purple nutsedge; type: in vivo, Cyperus rotundus
Method in brief: as §1

[14] = tested on: rice; assay: Test B flood test rice; type: in vivo, Oryza sativa
Method in brief: (§2)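 Plants were grown to the 2-leaf stage before treatment with test chemical, then held in a greenhouse for twelve to sixteen days. Injury was visually rated against untreated controls on a 0–10 scale, where 0 is no effect and 10 is complete control.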

[15] = tested on: smallflower flatsedge; assay: Test B flood test smallflower flatsedge; type: in vivo, Cyperus difformis
Method in brief: as §2

[16] = tested on: duck salad; assay: Test B flood test duck salad; type: in vivo, Heteranthera limosa
Method in brief: as §2

[17] = Postemergence, Rate 125 g/ha, scale of 0 to 10 where 0 is no effect and 10 is complete control
[18] = Preemergence, Rate 31 g/ha, visual rating, scale 0 to 10 (0 no effect, 10 complete control)
[19] = Preemergence, Rate 62 g/ha, scale 0 to 10 (0 no effect, 10 complete control)
[20] = Preemergence, Rate 125 g/ha, 0 is no effect, 10 is complete control
[21] = Preemergence, Rate 250 g/ha, scale 0 to 10, 0 is no effect, 10 is complete control
[22] = Preemergence, Rate 500 g/ha, scale 0 to 10 (0 no effect, 10 complete control)
[23] = Rate 31 g/ha, Postemergence, scale 0 to 10
[24] = Rate 62 g/ha, Postemergence, scale of 0 to 10 where 0 is no effect and 10 is complete control
[25] = Rate 250 g/ha, Postemergence, scale 0 to 10, 0 is no effect, 10 is complete control
[26] = Rate 500 g/ha, Postemergence, scale 0 to 10
[27] = Postemergence (flood test species), Rate 125 g/ha, scale of 0 to 10 where 0 is no effect and 10 is complete control
[28] = Rate 31 g/ha, Postemergence section (flood test species), scale 0 to 10
[29] = Rate 62 g/ha, Postemergence section, flood test species, scale of 0 to 10 where 0 is no effect and 10 is complete control
[30] = Rate 62 g/ha, headed Pre-emergence (flood test species), scale 0 to 10 (0 no effect, 10 complete control)
[31] = Rate 125 g/ha, Pre-emergence, flood test species, scale 0 to 10 where 0 is no effect and 10 is complete control
[32] = Rate 250 g/ha, Postemergence (flood test), scale 0 to 10, 0 is no effect, 10 is complete control
[33] = Rate 250 g/ha, Pre-emergence, flood-test species, scale 0 to 10, 0 is no effect, 10 is complete control
[34] = Rate 500 g/ha, headed Pre-emergence (flood test species), scale 0 to 10 (0 no effect, 10 complete control)
[35] = Rate 500 g/ha, listed under Postemergence (flood test species), scale 0 to 10

Compound: C=CCn1c(=O)on(C(=O)N(c2ccc(F)cc2)C(C)C)c1=O [Compound 146]
- Cocklebur plant response rating [1, 17]: 2
- Cocklebur plant response rating [1, 18]: 0
- Cocklebur plant response rating [1, 19]: 0
- Cocklebur plant response rating (0 to 10 scale) [1, 20]: 0
- Cocklebur plant response rating [1, 21]: 0
- Cocklebur plant response rating [1, 22]: 0
- Cocklebur plant response rating [1, 23]: 0
- Cocklebur plant response rating [1, 24]: 2
- Plant response rating, Cocklebur [1, 25]: 3
- Cocklebur plant response rating [1, 26]: 4
- Corn plant response rating [2, 17]: 0
- Corn plant response rating [2, 18]: 0
- Corn plant response rating [2, 19]: 3
- Corn plant response rating (0 to 10 scale) [2, 20]: 5
- Corn plant response rating [2, 21]: 8
- Corn plant response rating [2, 22]: 9
- Corn plant response rating [2, 23]: 0
- Corn plant response rating [2, 24]: 0
- Plant response rating, Corn [2, 25]: 0
- Corn plant response rating [2, 26]: 0
- Crabgrass plant response rating [3, 17]: 9
- Crabgrass plant response rating [3, 18]: 5
- Crabgrass plant response rating [3, 19]: 8
- Crabgrass plant response rating (0 to 10 scale) [3, 20]: 8
- Crabgrass plant response rating [3, 21]: 9
- Crabgrass plant response rating [3, 22]: 10
- Crabgrass plant response rating [3, 23]: 5
- Crabgrass plant response rating [3, 24]: 8
- Plant response rating, Crabgrass [3, 25]: 9
- Crabgrass plant response rating [3, 26]: 9
- Giant foxtail plant response rating [4, 17]: 9
- Giant foxtail plant response rating [4, 18]: 9
- Giant foxtail plant response rating [4, 19]: 10
- Giant foxtail plant response rating (0 to 10 scale) [4, 20]: 10
- Giant foxtail plant response rating [4, 21]: 10
- Giant foxtail plant response rating [4, 22]: 10
- Giant foxtail plant response rating [4, 23]: 3
- Giant foxtail plant response rating [4, 24]: 8
- Plant response rating, Giant foxtail [4, 25]: 9
- Giant foxtail plant response rating [4, 26]: 9
- Morningglory plant response rating [5, 17]: 5
- Morningglory plant response rating [5, 18]: 0
- Morningglory plant response rating [5, 19]: 2
- Morningglory plant response rating (0 to 10 scale) [5, 20]: 3
- Morningglory plant response rating [5, 21]: 3
- Morningglory plant response rating [5, 22]: 4
- Morningglory plant response rating [5, 23]: 2
- Morningglory plant response rating [5, 24]: 3
- Plant response rating, Morningglory [5, 25]: 8
- Morningglory plant response rating [5, 26]: 9
- Redroot pigweed plant response rating [6, 17]: 6
- Redroot pigweed plant response rating [6, 18]: 10
- Redroot pigweed plant response rating [6, 19]: 10
- Redroot pigweed plant response rating (0 to 10 scale) [6, 20]: 10
- Redroot pigweed plant response rating [6, 21]: 10
- Redroot pigweed plant response rating [6, 22]: 10
- Redroot pigweed plant response rating [6, 23]: 0
- Redroot pigweed plant response rating [6, 24]: 4
- Plant response rating, Redroot pigweed [6, 25]: 6
- Redroot pigweed plant response rating [6, 26]: 8
- Rape plant response rating [7, 17]: 2
- Rape plant response rating [7, 18]: 0
- Rape plant response rating [7, 19]: 2
- Rape plant response rating (0 to 10 scale) [7, 20]: 10
- Rape plant response rating [7, 21]: 10
- Rape plant response rating [7, 22]: 10
- Rape plant response rating [7, 23]: 0
- Rape plant response rating [7, 24]: 2
- Plant response rating, Rape [7, 25]: 3
- Rape plant response rating [7, 26]: 5
- Soybean plant response rating [8, 17]: 6
- Soybean plant response rating [8, 18]: 0
- Soybean plant response rating [8, 19]: 0
- Soybean plant response rating (0 to 10 scale) [8, 20]: 0
- Soybean plant response rating [8, 21]: 2
- Soybean plant response rating [8, 22]: 4
- Soybean plant response rating [8, 24]: 3
- Plant response rating, Soybean [8, 25]: 6
- Soybean plant response rating [8, 26]: 8
- Sugarbeets plant response rating [9, 17]: 3
- Sugarbeets plant response rating [9, 18]: 5
- Sugarbeets plant response rating [9, 19]: 8
- Sugarbeets plant response rating (0 to 10 scale) [9, 20]: 9
- Sugarbeets plant response rating [9, 21]: 10
- Sugarbeets plant response rating [9, 22]: 10
- Sugarbeets plant response rating [9, 24]: 1
- Plant response rating, Sugarbeets [9, 25]: 4
- Sugarbeets plant response rating [9, 26]: 6
- Velvetleaf plant response rating [10, 17]: 2
- Velvetleaf plant response rating [10, 18]: 3
- Velvetleaf plant response rating [10, 19]: 7
- Velvetleaf plant response rating (0 to 10 scale) [10, 20]: 7
- Velvetleaf plant response rating [10, 21]: 8
- Velvetleaf plant response rating [10, 22]: 8
- Velvetleaf plant response rating [10, 24]: 0
- Plant response rating, Velvetleaf [10, 25]: 6
- Velvetleaf plant response rating [10, 26]: 6
- Wheat plant response rating [11, 17]: 2
- Wheat plant response rating [11, 18]: 0
- Wheat plant response rating [11, 19]: 2
- Wheat plant response rating (0 to 10 scale) [11, 20]: 2
- Wheat plant response rating [11, 21]: 8
- Wheat plant response rating [11, 22]: 8
- Wheat plant response rating [11, 24]: 0
- Plant response rating, Wheat [11, 25]: 5
- Wheat plant response rating [11, 26]: 6
- Wild oats plant response rating [12, 17]: 3
- Wild oats plant response rating [12, 18]: 1
- Wild oats plant response rating [12, 19]: 9
- Wild oats plant response rating (0 to 10 scale) [12, 20]: 10
- Wild oats plant response rating [12, 21]: 10
- Wild oats plant response rating [12, 22]: 10
- Wild oats plant response rating [12, 24]: 2
- Plant response rating, Wild oats [12, 25]: 6
- Wild oats plant response rating [12, 26]: 7
- Nutsedge plant response rating [13, 17]: 0
- Nutsedge plant response rating [13, 18]: 0
- Nutsedge plant response rating [13, 19]: 0
- Nutsedge plant response rating (0 to 10 scale) [13, 20]: 0
- Nutsedge plant response rating [13, 21]: 0
- Nutsedge plant response rating [13, 22]: 3
- Nutsedge plant response rating [13, 23]: 0
- Nutsedge plant response rating [13, 24]: 0
- Plant response rating, Nutsedge [13, 25]: 0
- Nutsedge plant response rating [13, 26]: 6
- Rice plant response rating [14, 27]: 0
- Rice plant response rating [14, 28]: 0
- Rice plant response rating [14, 29]: 0
- Rice plant response rating [14, 30]: 0
- Rice plant response rating [14, 31]: 0
- Plant response rating, Rice [14, 32]: 2
- Rice plant response rating [14, 33]: 0
- Plant response rating, Rice [14, 34]: 0
- Rice plant response rating [14, 35]: 7
- S. Flatsedge plant response rating [15, 27]: 0
- S. Flatsedge plant response rating [15, 29]: 0
- S. Flatsedge plant response rating [15, 30]: 0
- S. Flatsedge plant response rating [15, 31]: 0
- Plant response rating, S. Flatsedge [15, 32]: 3
- S. Flatsedge plant response rating [15, 33]: 0
- S. Flatsedge plant response rating [15, 35]: 9
- S. Flatsedge plant response rating ([15]; Rate 500 g/ha, Pre-emergence, flood test species, scale 0 to 10 (0 no effect, 10 complete control)): 1
- Ducksalad plant response rating [16, 27]: 3
- Ducksalad plant response rating [16, 28]: 0
- Ducksalad plant response rating [16, 29]: 2
- Ducksalad plant response rating [16, 30]: 0
- Ducksalad plant response rating [16, 31]: 0
- Plant response rating, Ducksalad [16, 32]: 5
- Ducksalad plant response rating [16, 33]: 0
- Plant response rating, Ducksalad [16, 34]: 1
- Ducksalad plant response rating [16, 35]: 6
